{"source": "patent US20250367191A1", "about": "“TREATMENT OF MITOCHONDRIAL DISEASES WITH A CNS-PENETRANT SGC STIMULATOR ZAGOCIGUAT” (Tisento Therapeutics Inc., priority 2022, published 2025)", "key": {"rats": {"system": "rats", "details": "cited from earlier work"}, "[1]": {"system": "participants diagnosed with MELAS", "assay": "MELAS study: fMRI-BOLD during resting state and visual stimulus", "format": "in vivo, human", "experimental": "Two exploratory functional neuroimaging modalities, arterial spin labeling (ASL) and functional magnetic resonance imaging (fMRI), were used to measure the potential PD effects of Compound I in the brain. While ASL quantifies regional CBF during the resting state, fMRI is a relative measure based on the blood-oxygen-level-dependent (BOLD) effect and was conducted during both a resting state and during a visual stimulus to measure brain activity.\nEach individual MRI scanning session took approximately 45 minutes (maximum of ˜1 hour)."}}, "data": [{"smiles": "Fc1ccccc1Cc1nc(-c2nc(C(F)(F)F)n[nH]2)cn2ccnc12", "note": "[Compound I, zagociguat]", "values": [{"measurement": "gamma power in combination with donepezil", "setting": "rats; 10 mg/kg orally + 1 mg/kg donepezil, 1-2 hours post-dose", "result": "further increased"}, {"measurement": "qEEG gamma oscillations / gamma power compared to vehicle dosing", "setting": "rats; oral suspension", "result": "increasing gamma oscillations"}, {"measurement": "gamma power", "setting": "rats; orally at 10 mg/kg", "result": "increased gamma power"}, {"measurement": "task-based functional MRI (visual activation, flashing checkerboard)", "setting": "[1]; Day 29 compared to screening and Day 1", "result": "increased activation of voxels in the occipital region"}, {"measurement": "task-free functional MRI during resting state, connectivity", "setting": "[1]; Day 29 compared to screening and day 1", "result": "enhanced connecitivity"}]}]}
